Data set [1] relates to all tested strains (S. pneumoniae, B. subtilis, P. aeruginosa, E. coli, A. fumigates, C. albicans). Nature of the data set: Antimicrobial sensitivity assay, agar well diffusion (inhibition zone). The note with it: tested bacteria and fungi. The data set is classed as cell-based.
Description: (§1) Solutions of concentrations (1 µg/mL) of the target compounds were used. […] The diameter of inhibition zone (mm) was measured for the biologically activity using the diffusion technique[35]. […] The different concentrations (triplicate) of each compound were tested and compared with standard drugs.
The screening was done for the in vitro antibacterial activity against Gram-positive Streptococcus pneumoniae and Bacillus subtilis, and Gram-negative Pseudomonas aeruginosa and Escherichia coli, and for the in vitro antifungal activity against Aspergillus fumigates and Candida albicans.
The next data set has as its system S. pneumonia RCMB 010010. Nature of the data set: Minimum inhibitory concentration (MIC), antibacterial. In kind it is cell-based, Streptococcus pneumoniae. The note with it: S. pneumonia RCMB 010010, Gram-positive, mean of three values; for MIC: Streptococcus pneumoniae, RCMB010010, read-out: MIC (Mean ± SEM).
Data set [2] has as its system P. aeruginosa RCMB 010043. The data set is described as above. In kind it is cell-based. The note with it: Pseudomonas aeruginosa, RCMB010043; P. aeruginosa RCMB 010043, Gram-negative; mean of three values; read-out: MIC (Mean ± SEM).
Description: as §1
A further data set relates to E. coli RCMB 010052. Described as above. In kind it is cell-based. The note with it: Escherichia coli, RCMB010052; E. coli RCMB 010052, Gram-negative; mean of three values; read-out: MIC (Mean ± SEM).
For the next data set, the system named is B. subtilis RCMB 010067. Described as above. In kind it is cell-based. The note with it: Bacillus subtilis, RCMB010067; B. subtilis RCMB 010067, Gram-positive; mean of three values; read-out: MIC (Mean ± SEM).
In the next data set the test system is A. fumigatus RCMB 002568. Nature of the data set: Minimum inhibitory concentration (MIC), antifungal. The data set is classed as cell-based, Aspergillus fumigates. As to conditions: A. fumigatus RCMB 002568, fungi, mean of three values; for MIC: Aspergillus fumigatus, RCMB002568, read-out: MIC (Mean ± SEM).
The next data set relates to C. albicans RCMB 005036. Nature of the data set: Minimum inhibitory concentration (MIC), antifungal. The data set is classed as cell-based. The note with it: Candida albicans, RCMB005036; C. albicans RCMB 005036, fungi; mean of three values; read-out: MIC (Mean ± SEM).
Data set [3] deals with T1, dihydrofolate reductase (DHFR) (Homo sapiens, UniProt P00374).
T1 sequence (P00374 1-187): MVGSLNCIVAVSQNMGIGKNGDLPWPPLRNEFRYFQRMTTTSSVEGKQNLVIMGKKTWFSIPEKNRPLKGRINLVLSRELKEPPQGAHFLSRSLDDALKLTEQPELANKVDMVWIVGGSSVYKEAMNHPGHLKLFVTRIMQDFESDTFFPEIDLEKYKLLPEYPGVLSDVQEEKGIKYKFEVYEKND
As to the kind of experiment: In vitro enzyme assay on dihydrofolate reductase (DHFR). The data set is classed as biochemical. The note with it: absorbance at 340 nm, 22 °C, mean of three values, read-out: IC50 (Mean ± SEM) DHFR.

In brackets after ≈: the same amount, converted by molar mass. A value given as a limit tells only on which side of the number the result lay.

By melting point is commonly meant the temperature of the solid-liquid transition. One may read the MIC as the lowest concentration found to suppress growth. Usually IC50 stands for the concentration that inhibits the measured activity by half.

Description for A. fumigatus RCMB 002568: as §1
Description for B. subtilis RCMB 010067: as §1
Description for C. albicans RCMB 005036: Solutions of concentrations (1 µg/mL) of the target compounds were used. […] The different concentrations (triplicate) of each compound were tested and compared with standard drugs.
Description for E. coli RCMB 010052: as §1
Description for S. pneumonia RCMB 010010: as §1

Compound `Cc1n[nH]c2c(C#N)c(=O)n(-c3cccc4ccccc34)nc12` [Compound 6d, 3-Methyl-5-(naphthalen-1-yl)-6-oxo-5,6-dihydro-1H-pyrazolo[4,3-c]pyridazine-7-carbonitrile] registered a melting point of 282 to 284 °C. Besides, the “antimicrobial activity (in words)” value in [1] is “either inactive or less active”.

As to `Cc1n[nH]c2nn(-c3cccc4ccccc34)nc12` [Compound 9b, 6-Methyl-2-(naphthalen-1-yl)-2,4-dihydropyrazolo[3,4-d][1,2,3]triazole], the melting point was above 300 °C. Also, in [1], the “antimicrobial activity (in words)” value was “either inactive or less active”.

For the compound `Cc1nnc2c(C#N)c(N)n(-c3ccc(S(N)(=O)=O)cc3)nc1-2` [Compound 6a, 4-(6-Amino-7-cyano-3-methyl-5H-pyrazolo[4,3-c]pyridazin-5-yl)benzenesulphonamide], the MIC stood at 0.98 ± 0.1 µg/mL (≈ 2.98 µM) with S. pneumonia RCMB 010010; 3.9 ± 0.1 µg/mL (≈ 11.8 µM) in data set [2]; 0.49 ± 0.4 µg/mL (≈ 1.49 µM) in the data set with E. coli RCMB 010052; 0.49 ± 0.2 µg/mL (≈ 1.49 µM) with B. subtilis RCMB 010067; 0.98 ± 0.2 µg/mL (≈ 2.98 µM) with A. fumigatus RCMB 002568; 3.9 ± 0.03 µg/mL (≈ 11.8 µM) in the data set with C. albicans RCMB 005036. Moreover, the “antimicrobial activity (in words)” value in data set [1] was “highly active”.

As for `C[C@@H]1[C@H](O)[C@@H](C)/C=C/C=C/C=C/C=C/C=C/C=C/C=C/[C@H](O[C@@H]2O[C@H](C)[C@@H](O)[C@H](N)[C@@H]2O)C[C@@H]2O[C@](O)(C[C@@H](O)C[C@@H](O)[C@H](O)CC[C@@H](O)C[C@@H](O)CC(=O)O[C@H]1C)C[C@H](O)[C@H]2C(=O)O` [Amphotericin B, reference compound], the “MIC (Mean ± SEM)” value against A. fumigatus RCMB 002568 is 1.95 µg/mL (≈ 2.11 µM). Moreover, the minimal inhibitory concentration (MIC) turned out to be 1.95 ± 0.3 µg/mL (≈ 2.11 µM) in the data set with A. fumigatus RCMB 002568 and 3.9 ± 0.1 µg/mL (≈ 4.22 µM) in the data set with C. albicans RCMB 005036.

Take `Cc1n[nH]c2nn(-c3ccc(S(N)(=O)=O)cc3)nc12` [Compound 9a, 4-(6-Methylpyrazolo[3,4-d][1,2,3]triazol-2(4H)-yl)benzenesulphonamide]: the melting point was above 300 °C. Moreover, the minimum inhibitory concentration (MIC) with S. pneumonia RCMB 010010 worked out at 3.9 ± 0.3 µg/mL (≈ 14 µM). Also, the MIC in [2] came out at 15.6 ± 0.5 µg/mL (≈ 56.2 µM). Moreover, in the data set with E. coli RCMB 010052, the MIC was 1.95 ± 0.3 µg/mL (≈ 7.01 µM). Moreover, the MIC in the data set on B. subtilis RCMB 010067 was 1.95 ± 0.08 µg/mL (≈ 7.01 µM). In the data set on A. fumigatus RCMB 002568, the minimal inhibitory concentration (MIC) was 250 ± 0.2 µg/mL (≈ 898 µM). Also, the MIC with C. albicans RCMB 005036 is 7.81 ± 0.2 µg/mL (≈ 28.1 µM). The “antimicrobial activity (in words)” value in data set [1] is listed as “highly active”. In addition, in [3], the IC50 worked out at 1.45 ± 0.23 µM.

Compound `Cc1nnc2n(-c3ccccc3)c(=S)n(-c3ccc(S(N)(=O)=O)cc3)nc1-2` [Compound 8a, 4-(7-Methyl-4-phenyl-3-thioxo-3,4-dihydro-2H-pyrazolo[3,4-e][1,2,4]triazin-2-yl)benzenesulphonamide] yielded a melting point of 275 to 277 °C. Further, the MIC with S. pneumonia RCMB 010010 turned out to be 15.6 ± 0.5 µg/mL (≈ 39.2 µM). Moreover, the MIC in [2] worked out at 125 ± 0.3 µg/mL (≈ 314 µM). In the data set with E. coli RCMB 010052, the MIC came out at 62.5 ± 0.3 µg/mL (≈ 157 µM). Moreover, in the data set with B. subtilis RCMB 010067, the MIC came out at 125 ± 0.4 µg/mL (≈ 314 µM). The MIC in the data set with A. fumigatus RCMB 002568 is 3.9 ± 0.1 µg/mL (≈ 9.79 µM). The MIC in the data set with C. albicans RCMB 005036 came out at 62.5 ± 0.5 µg/mL (≈ 157 µM). For the same compound, the “antimicrobial activity (in words)” value in data set [1] is “highly active”. Moreover, in data set [3], the IC50 worked out at 1.36 ± 0.12 µM.

Take `O=C(O)c1cn(C2CC2)c2cc(N3CCNCC3)c(F)cc2c1=O` [Ciprofloxacin, reference compound]: in the data set with S. pneumonia RCMB 010010, the “MIC (Mean ± SEM)” value is 0.98 µg/mL (≈ 2.96 µM). For the same compound, the MIC was found to be 0.98 ± 0.2 µg/mL (≈ 2.96 µM) in the data set with S. pneumonia RCMB 010010, 0.5 ± 0.05 µg/mL (≈ 1.51 µM) in data set [2], 0.01 ± 0.1 µg/mL (≈ 0.0302 µM) with E. coli RCMB 010052 and 0.1 ± 0.3 µg/mL (≈ 0.302 µM) with B. subtilis RCMB 010067.

For `Cc1n[nH]c2c(C#N)c(=O)n(-c3ccc(S(N)(=O)=O)cc3)nc12` [Compound 6b, 4-(7-Cyano-3-methyl-6-oxo-1,6-dihydro-5H-pyrazolo[4,3-c]pyridazin-5-yl)benzenesulphonamide], the “MIC (Mean ± SEM)” value against S. pneumonia RCMB 010010 and with A. fumigatus RCMB 002568 was 1.95 µg/mL (≈ 5.9 µM) in each case. The MIC with S. pneumonia RCMB 010010 was 1.95 ± 0.4 µg/mL (≈ 5.9 µM); in data set [2] it was 62.5 ± 0.3 µg/mL (≈ 189 µM); in the data set on E. coli RCMB 010052, 0.98 ± 0.1 µg/mL (≈ 2.97 µM); with B. subtilis RCMB 010067, 0.98 ± 0.1 µg/mL (≈ 2.97 µM); in the data set on A. fumigatus RCMB 002568, 1.95 ± 0.3 µg/mL (≈ 5.9 µM); in the data set with C. albicans RCMB 005036, 7.81 ± 0.05 µg/mL (≈ 23.6 µM). For the same compound, the “antimicrobial activity (in words)” value in data set [1] was “highly active”. In addition, the IC50 in data set [3] worked out at 5.24 ± 0.37 µM.

As to `Cc1nnc2c(C#N)c(N)n(-c3cccc4ccccc34)nc1-2` [Compound 6c, 6-Amino-3-methyl-5-(naphthalen-1-yl)-5H-pyrazolo[4,3-c]pyridazine-7-carbonitrile], the melting point was 288 to 290 °C. Moreover, the “antimicrobial activity (in words)” value in data set [1] is “either inactive or less active”.

The compound `Cc1nnc2n(-c3ccccc3)c(=S)n(-c3cccc4ccccc34)nc1-2` [Compound 8b, 7-Methyl-2-(naphthalen-1-yl)-4-phenyl-2,4-dihydro-3H-pyrazolo[3,4-e][1,2,4]triazine-3-thione] yielded a melting point of 257 to 259 °C. The “antimicrobial activity (in words)” value in data set [1] was “either inactive or less active”.

Compound `CC1=NNC(=O)C1=NNc1cccc2ccccc12` [Compound 3b, 5-Methyl-4–(2-(naphthalene-1-yl)hydrazineylidene)-2,4-dihydro-3H-pyrazol-3-one] yielded a melting point of 189 to 191 °C. Moreover, the MIC with S. pneumonia RCMB 010010 came out at 7.81 ± 0.1 µg/mL (≈ 31 µM). In [2], the MIC is 125 ± 0.3 µg/mL (≈ 495 µM). The MIC in the data set with E. coli RCMB 010052 is 250 ± 0.5 µg/mL (≈ 991 µM). The MIC with B. subtilis RCMB 010067 came to 15.6 ± 0.5 µg/mL (≈ 62 µM). The minimum inhibitory concentration (MIC) with A. fumigatus RCMB 002568 was determined as 125 ± 0.2 µg/mL (≈ 495 µM). Moreover, the MIC with C. albicans RCMB 005036 was found to be 62.5 ± 0.1 µg/mL (≈ 248 µM). Also, in [3], the IC50 worked out at 18.3 ± 0.81 µM.

Take `CC1=NNC(=O)C1=NNc1ccc(S(N)(=O)=O)cc1` [Compound 3a, 4-(2-(3-Methyl-5-oxo-1,5-dihydro-4H-pyrazol-4-ylidene)hydrazineyl)benzenesulfonamide]: the “MIC (Mean ± SEM)” value against S. pneumonia RCMB 010010 and with A. fumigatus RCMB 002568 was 1.95 µg/mL (≈ 6.93 µM) in each case. Further, the MIC is 1.95 ± 0.3 µg/mL (≈ 6.93 µM) in the data set with S. pneumonia RCMB 010010; 7.81 ± 0.3 µg/mL (≈ 27.8 µM) in data set [2]; 0.98 ± 0.6 µg/mL (≈ 3.48 µM) with E. coli RCMB 010052; 0.98 ± 0.1 µg/mL (≈ 3.48 µM) with B. subtilis RCMB 010067; 1.95 ± 0.1 µg/mL (≈ 6.93 µM) with A. fumigatus RCMB 002568; 3.9 ± 0.3 µg/mL (≈ 13.9 µM) with C. albicans RCMB 005036.
